Reference: patent US8637516B2 (IRM LLC, priority 2010, dated 2014)

What was measured:
parental Ba/F3 cells = assay: Proliferation of parental (untransformed, wt) Ba/F3 cells (BAF3/WT); format: cell-based, murine; details: Mus musculus, Table 1, parental cells with IL3, 48 hours
Experimental: (§1) Compound dilutions were made in 384 well plates.
Compounds were tested for their ability to inhibit the proliferation of wt Ba/F3 cells and Ba/F3 cells transformed with constitutively expressed luciferase reporter and BCR-ABL or Tel-FMS or other Tel fusion kinases (EGFR, JAK2, ALK, BMX, FGFR3, FGFR4, FGR2, FLT1, FLT3, IGF1R, INSR, KDR, KIT, LCK, LYN, MEK, MET, PDGFRα, PDGFRβ, RET, RON, ROS, SRC, SYK, TIE and TYRO) or BRafV600E. Parental Ba/F3 cells were maintained in media containing recombinant mouse IL3 and the kinase transformed Ba/F3 cells were maintained in media without IL-3. 7.5 nl of compounds were spotted to each well of 1536-well assay plates by Liquid handling System Echo 555 (Labcyte). 700 cells were then plated into each well of the assay plates in 7 uL culture media per well and compounds were tested at 0.17 nM to 10 uM in 3-fold serial dilutions. The cells were then incubated for 48 hours at 37° C. 3 uL of Bright-Glo® (Promega) was added to each well and the plates were read using ViewLux (PerkinElmer).
(§2) The emited luminiscence is quantified using ViewLux (PerkinElmer).

[1] = biological target: T1, Ba/F3 cells transformed with human Tel-TrkA (Homo sapiens, UniProt P04629); assay: Proliferation of Ba/F3 cells transformed with human Tel-TrkA (Ba/F3 Tel-TrkA); format: cell-based; details: Table 1; 48 hours, Bright Glo luminescence; read-out: Ba/F3 Tel-TrkA
T1 construct: expressed in transfected cells; host or cells: Ba/F3 murine hematopoietic progenitor cells (luciferase expressing); the other entry of the earlier key: ETV6 (P41212, Transcription factor ETV6)
T1 sequence (P04629 510-796 limits assumed): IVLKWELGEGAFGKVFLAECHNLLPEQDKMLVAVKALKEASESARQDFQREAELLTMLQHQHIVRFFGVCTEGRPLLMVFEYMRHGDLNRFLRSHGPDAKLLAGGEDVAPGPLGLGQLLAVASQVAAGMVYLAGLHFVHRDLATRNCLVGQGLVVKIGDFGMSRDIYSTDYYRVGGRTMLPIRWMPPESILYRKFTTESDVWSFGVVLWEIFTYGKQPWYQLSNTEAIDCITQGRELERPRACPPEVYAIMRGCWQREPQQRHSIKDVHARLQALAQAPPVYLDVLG
Excerpt: as §1, §2

Row | SMILES | IC50 (parental Ba/F3 cells) [nM] | IC50 [1] [nM]
1 | COc1cccc(/C=C/C(=O)c2cnc3ccc(N4CCC[C@@H]4c4cccc(F)c4)nn23)n1 [X-131] | 1670 | 194
2 | O=C(NCCC(F)(F)F)c1cnc2ccc(N3CCC[C@@H]3c3cccc(F)c3)nn12 [X-76] | > 10000 | 34
3 | CONC(=O)c1cnc2ccc(N3CCC[C@@H]3c3cccc(F)c3)nn12 [X-151] | > 10000 | 45
4 | NCC(=O)Nc1cnc2ccc(N3CCC[C@@H]3c3cccc(F)c3)nn12 [X-193] | > 10000 | 118
5 | CCOC(=O)c1cnc2ccc(N3CC(F)(F)C(F)(F)[C@@H]3c3cccc(F)c3)nn12 [X-164, (S)-ethyl 6-(3,3,4,4-tetrafluoro-2-(3-fluorophenyl)pyrrolidin-1-yl)imidazo[1,2-b]pyridazine-3-carboxylate] | > 10000 | 600
6 | O=C(NCCF)c1cnc2ccc(N3CCC[C@@H]3c3cccc(F)c3)nn12 [X-96] | > 10000 | 7
7 | CCOCC(=O)Nc1cnc2ccc(N3CCC[C@@H]3c3cccc(F)c3)nn12 [X-168, (R)-2-ethoxy-N-(6-(2-(3-fluorophenyl)pyrrolidin-1-yl)imidazo[1,2-b]pyridazin-3-yl)acetamide] | > 10000 | 17
8 | O=C(NCCN1CCCC1=O)c1cnc2ccc(N3CCC[C@@H]3c3cccc(F)c3)nn12 [X-86] | > 10000 | 191
9 | O=C(NCC1CCCC1)c1cnc2ccc(N3CCC[C@@H]3c3cccc(F)c3)nn12 [X-109] | 7960 | 40
10 | CCOC(=O)c1cnc2ccc(N3C[C@@H](F)C[C@@H]3c3cccc(F)c3)nn12 [X-165, ethyl 6-((2R,4S)-4-fluoro-2-(3-fluorophenyl)pyrrolidin-1-yl)imidazo[1,2-b]pyridazine-3-carboxylate] | > 10000 | 4
11 | O=C(NO)c1cnc2ccc(N3CCC[C@@H]3c3cccc(F)c3)nn12 [X-150] | > 10000 | 210
12 | CN(C)CCONC(=O)c1cnc2ccc(N3CCC[C@@H]3c3cccc(F)c3)nn12 [X-146] | > 10000 | 302
13 | O=C(NCC1CCCCC1)c1cnc2ccc(N3CCC[C@@H]3c3cccc(F)c3)nn12 [X-95] | > 10000 | 118
14 | COC(=O)Nc1cnc2ccc(N3CCC[C@@H]3c3cccc(F)c3)nn12 [X-235] | > 10000 | 586
15 | CC(C)NC(=O)c1cnc2ccc(N3CCC[C@@H]3c3cccc(F)c3)nn12 [X-39] | > 10000 | 14
16 | COC(=O)c1cnc2ccc(N3CCC[C@@H]3c3cccc(F)c3)nn12 [X-157] | > 10000 | 112
17 | O=C(N[C@@H]1CCC[C@H]1O)c1cnc2ccc(N3CCC[C@@H]3c3cccc(F)c3)nn12 [X-81] | > 10000 | 12
18 | CC(C)C[C@H](CO)NC(=O)c1cnc2ccc(N3CCC[C@@H]3c3cccc(F)c3)nn12 [X-107] | > 10000 | 40
19 | O=C(NCCN1CCOCC1)c1cnc2ccc(N3CCC[C@@H]3c3cccc(F)c3)nn12 [X-52] | > 10000 | 58
20 | CC(=O)N1CC[C@@H](NC(=O)c2cnc3ccc(N4CCC[C@@H]4c4cccc(F)c4)nn23)C1 [X-66] | > 10000 | 737
21 | O=C(NCc1cccc(N2CCOCC2)n1)c1cnc2ccc(N3CCC[C@@H]3c3cccc(F)c3)nn12 [X-25] | > 8990 | 37
22 | CCS(=O)(=O)N1CCC(NC(=O)c2cnc3ccc(N4CCC[C@@H]4c4cccc(F)c4)nn23)CC1 [X-27] | > 10000 | 17
23 | NCC(=O)Nc1cnc2ccc(N3CC(F)(F)C[C@@H]3c3cccc(F)c3)nn12 [X-204, (R)-2-amino-N-(6-(4,4-difluoro-2-(3-fluorophenyl)pyrrolidin-1-yl)imidazo[1,2-b]pyridazin-3-yl)acetamide] | > 10000 | 28
24 | [2H]C1([2H])CC[C@H](c2cccc(F)c2)N1c1ccc2ncc(C(N)=O)n2n1 [X-11] | > 10000 | 25
25 | CCOC(=O)c1cnc2ccc(N3C[C@@H](F)C[C@@H]3c3ccc(F)c(F)c3)nn12 [X-239] | > 10000 | 194
26 | O=C(NCCO)c1cnc2ccc(N3C[C@@H](F)C[C@@H]3c3cccc(F)c3)nn12 [X-119] | > 10000 | 3
27 | O=C(CCc1cccc(N2CCOCC2)n1)c1cnc2ccc(N3CCC[C@@H]3c3cccc(F)c3)nn12 [X-129] | > 9710 | 88

Row | SMILES | IC50 (parental Ba/F3 cells) [nM] | IC50 [1] [nM]
28 | O=C(NC1CC1)c1cnc2ccc(N3CCC[C@@H]3c3cccc(F)c3)nn12 [X-44] | > 10000 | 11
29 | O=C(NOC1CCCCO1)c1cnc2ccc(N3CCC[C@@H]3c3cccc(F)c3)nn12 (stereo partly shown) [X-144] | > 10000 | 128
30 | O=C(NCc1ccc(F)cc1)c1cnc2ccc(N3CCC[C@@H]3c3cccc(F)c3)nn12 [X-47] | > 10000 | 70
31 | O=C(NCCCCO)c1cnc2ccc(N3CCC[C@@H]3c3cccc(F)c3)nn12 [X-20] | > 10000 | 30
32 | NC(=O)c1cnc2ccc(N3CCCC[C@@H]3c3cccc(F)c3)nn12 [X-19] | > 10000 | 79
33 | COCCNC(=O)c1cnc2ccc(N3CCC[C@@H]3c3cccc(F)c3)nn12 [X-51] | > 10000 | 67
34 | CCONC(=O)c1cnc2ccc(N3CCCC3c3cccc(F)c3)nn12 (stereo not shown) [X-152, N-ethoxy-6-(2-(3-fluorophenyl)pyrrolidin-1-yl)imidazo[1,2-b]pyridazine-3-carboxamide] | > 10000 | 42
35 | O=C(N[C@H]1CCCC[C@@H]1CO)c1cnc2ccc(N3CCC[C@@H]3c3cccc(F)c3)nn12 [X-28] | > 10000 | 112
36 | CCONC(=O)c1cnc2ccc(N3CCC[C@@H]3c3cccc(F)c3)nn12 [X-149] | > 10000 | 23
37 | O=C(N[C@@H]1c2ccccc2C[C@H]1O)c1cnc2ccc(N3CCC[C@@H]3c3cccc(F)c3)nn12 [X-106] | > 10000 | 3
38 | CC1(C)[C@H]2CC[C@@H](CNC(=O)c3cnc4ccc(N5CCC[C@@H]5c5cccc(F)c5)nn34)[C@@H]1C2 [X-110] | > 9760 | 207
39 | NC(=O)c1cnc2ccc(N3C[C@@H](F)C[C@@H]3c3cccc(F)c3)nn12 [X-7, 6-((2R,4S)-4-fluoro-2-(3-fluorophenyl)pyrrolidin-1-yl)imidazo[1,2-b]pyridazine-3-carboxamide] | 3560 | 5
40 | CN1CCN(NC(=O)c2cnc3ccc(N4CCC[C@@H]4c4cccc(F)c4)nn23)CC1 [X-154, (R)-6-(2-(3-fluorophenyl)pyrrolidin-1-yl)-N-(4-methylpiperazin-1-yl)imidazo[1,2-b]pyridazine-3-carboxamide] | > 10000 | 153
41 | O=C(NO)c1cnc2ccc(N3C[C@@H](F)C[C@@H]3c3cccc(F)c3)nn12 [X-153] | > 10000 | 10
42 | CC(NC(=O)c1cnc2ccc(N3CCC[C@@H]3c3cccc(F)c3)nn12)c1ccc(F)cc1 (stereo partly shown) [X-42] | > 9570 | 127
43 | O=C(NC1CCSCC1)c1cnc2ccc(N3CCC[C@@H]3c3cccc(F)c3)nn12 [X-59] | > 10000 | 36
44 | COCCC(=O)Nc1cnc2ccc(N3CCC[C@@H]3c3cccc(F)c3)nn12 [X-173] | > 10000 | 229
45 | O=C(N[C@H]1CC[C@@H](O)CC1)c1cnc2ccc(N3CCC[C@@H]3c3cccc(F)c3)nn12 [X-80] | > 10000 | 6
46 | O=C(NC1CCOCC1)c1cnc2ccc(N3CCC[C@@H]3c3cccc(F)c3)nn12 [X-93] | > 10000 | 10
47 | [2H]C1([2H])C(c2cccc(F)c2)N(c2ccc3ncc(C(=O)OCC)n3n2)C([2H])([2H])C1([2H])[2H] (stereo not shown) [X-161] | > 10000 | 63
48 | CC(C)(C)ONC(=O)c1cnc2ccc(N3CCC[C@@H]3c3cccc(F)c3)nn12 [X-145] | > 10000 | 33
49 | NC(=O)c1cnc2ccc(N3CC(F)(F)C[C@@H]3c3cccc(F)c3)nn12 [X-247, (R)-6-(4,4-difluoro-2-(3-fluorophenyl)pyrrolidin-1-yl)imidazo[1,2-b]pyridazine-3-carboxamide] | > 10000 | 34
50 | NC(=O)CNC(=O)c1cnc2ccc(N3C[C@@H](F)C[C@@H]3c3cccc(F)c3)nn12 [X-117] | > 10000 | 64
51 | O=C(N[C@@H]1CCOC1=O)c1cnc2ccc(N3CCC[C@@H]3c3cccc(F)c3)nn12 [X-100] | > 10000 | 27
52 | CCOC(=O)Nc1cnc2ccc(N3CCC[C@@H]3c3cccc(F)c3)nn12 [X-236, (R)-ethyl 6-(2-(3-fluorophenyl)pyrrolidin-1-yl)imidazo[1,2-b]pyridazin-3-ylcarbamate] | > 10000 | 545
53 | O=C(NCCO)c1cnc2ccc(N3CCC[C@@H]3c3cccc(F)c3)nn12 [X-79] | > 10000 | 61
